{"source": "patent US20250057913A1", "about": "“USE OF SOMATOSTATIN AGONIST IN THE TREATMENT OF SSTR3 EXPRESSING TUMORS” (ITALFARMACO SPA, priority 2021, published 2025)", "key": {"[1]": {"target": "T1, SSTR5 (Homo sapiens, UniProt P35346)", "T1 sequence (P35346 whole entry)": "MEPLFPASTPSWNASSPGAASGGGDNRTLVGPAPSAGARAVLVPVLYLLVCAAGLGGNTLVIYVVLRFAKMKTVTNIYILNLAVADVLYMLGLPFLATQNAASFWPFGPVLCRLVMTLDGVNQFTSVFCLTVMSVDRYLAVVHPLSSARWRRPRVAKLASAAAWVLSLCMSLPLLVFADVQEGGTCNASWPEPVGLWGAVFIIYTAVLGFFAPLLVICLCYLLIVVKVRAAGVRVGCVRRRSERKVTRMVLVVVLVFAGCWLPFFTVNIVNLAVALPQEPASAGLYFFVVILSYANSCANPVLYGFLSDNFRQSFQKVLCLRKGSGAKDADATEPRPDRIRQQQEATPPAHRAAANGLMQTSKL", "test": "SSTR5 internalization in transfected HEK293 cells", "type": "cell-based", "parameters": "expressed in transfected cells; host or cells: HEK293 co-expressing GIRK2-GFP", "excerpt": "HEK293 cells transfected with human SSTRs, and U20S cells transfected with human GFP-tagged receptors (SSTR2-tGFP, SSTR3-tGFP, SSTR5-tGFP). SST14 and SST28 were included as reference compounds in the first and second experiments, respectively."}, "[2]": {"target": "SSTR2-tGFP (Homo sapiens, UniProt P30874)", "sequence (P30874 whole entry)": "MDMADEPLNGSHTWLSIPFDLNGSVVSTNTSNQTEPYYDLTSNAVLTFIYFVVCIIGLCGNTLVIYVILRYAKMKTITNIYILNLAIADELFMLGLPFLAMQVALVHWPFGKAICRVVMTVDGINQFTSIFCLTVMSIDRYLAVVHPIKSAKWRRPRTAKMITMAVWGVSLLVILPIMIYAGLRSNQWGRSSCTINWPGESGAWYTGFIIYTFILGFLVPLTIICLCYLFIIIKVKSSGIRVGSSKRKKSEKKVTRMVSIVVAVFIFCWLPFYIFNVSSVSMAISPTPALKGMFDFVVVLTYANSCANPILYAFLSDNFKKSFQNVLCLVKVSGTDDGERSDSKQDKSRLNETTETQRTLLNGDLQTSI", "test": "Internalization of SSTR2 in U2OS transfected cells", "type": "cell-based", "parameters": "expressed in transfected cells; host or cells: U2OS", "excerpt": "(§1) HEK293 cells transfected with human SSTRs, and U20S cells transfected with human GFP-tagged receptors (SSTR2-tGFP, SSTR3-tGFP, SSTR5-tGFP)."}, "[3]": {"tested_on": "IGF1 levels", "test": "IGF1 levels in rats", "type": "in vivo, rat"}, "[4]": {"tested_on": "primary cultures of rat anterior pituitary cells", "test": "Inhibition of GHRH-stimulated GH release in vitro", "type": "cell-based", "conditions": "rat anterior pituitary primary cell cultures", "excerpt": "FIG. 4. Inhibition of GHRH-stimulated GH release in vitro using primary cultures of rat anterior pituitary cells.\nResults are expressed as mean values±SD of 3 experiments."}, "[5]": {"target": "T1, SSTR5", "text": "(§3) Therefore, G protein-signaling mediated by SSTR agonists was studied using a GIRK-based fluorescence membrane potential assay both in HEK293 cells transfected with hSSTR3, and in AtT20 wild-type as well as hSSTR3-transfected cells."}, "[6]": {"target": "T2, SSTR2 (Homo sapiens, UniProt P30874)", "T2 sequence (P30874 whole entry)": "as above", "test": "SSTR2 internalization in transfected HEK293 cells", "type": "cell-based", "parameters": "expressed in transfected cells", "excerpt": "as §1"}, "[7]": {"target": "T2, SSTR2", "test": "cell-based", "parameters": "expressed in transfected cells; host or cells: HEK293 co-expressing GIRK2-GFP", "text": "as §3"}, "[8]": {"tested_on": "opioid receptors", "test": "single dose binding assays on opioid receptors", "conditions": "single dose 10^−5 M"}, "[9]": {"target": "SSTR5-tGFP (Homo sapiens, UniProt P35346)", "sequence (P35346 whole entry)": "as the sequence (P35346 whole entry) above", "test": "Internalization of SSTR5 in U2OS transfected cells", "type": "cell-based", "parameters": "expressed in transfected cells; host or cells: U2OS", "excerpt": "as §1"}, "[10]": {"target": "T2, SSTR2", "test": "SSTR2 phosphorylation in HEK293 transfected cells (phosphosite-specific antibodies)", "type": "cell-based", "parameters": "expressed in transfected cells", "conditions": "10 or 1 μM, 10 min at 37° C.", "method": "(A) Schematic representation of the human SSTR2 receptor indicating all potential phosphate acceptor sites within the carboxyl-terminal tail. Epitopes of the phosphosite-specific antibodies are marked (-P). […] The levels of phosphorylated SSTR2 receptor were then determined using the phosphosite-specific anti-pS341/pS343, pT353/T354, pT356/T359 antibodies. […] Blots shown are representative of three independent experiments. The positions of molecular mass markers are indicated on the left (in kDa)."}, "[11]": {"target": "T2, SSTR2", "test": "SSTR binding affinity (Table 1)", "parameters": "expressed in transfected cells; host or cells: HEK293 co-expressing GIRK2-GFP", "excerpt": "(§2) IC50 values are from one representative experiment. Confidence interval from 3 independent experiments (Table 1)."}, "[12]": {"target": "T1, SSTR5", "test": "SSTR5 phosphorylation in HEK293 transfected cells (anti-pT333)", "type": "cell-based", "parameters": "expressed in transfected cells", "conditions": "10 min at 37° C.", "excerpt": "FIG. 9—Agonist-selective SSTR5 phosphorylation in HEK293 transfected cells. (A) Schematic representation of the human SSTR5 receptor indicating all potential phosphate acceptor site within the carboxyl-terminal tail. Epitope of the phosphosite-specific antibodies are marked (-P) . . . […] (C) Blots were subsequently stripped and reprobed with anti-HA antibody to confirm equal loading of the gels. Blots shown are representative of three independent experiments. The positions of molecular mass markers are indicated on the left (in kDa).\nFinally, the SSTR5 pT333 phosphosite was only partially affected by all tested compounds, with Pasireotide showing the most pronounced effect (FIG. 9B, C)."}, "[13]": {"target": "SSTR1 (Homo sapiens, UniProt P30872)", "sequence (P30872 whole entry)": "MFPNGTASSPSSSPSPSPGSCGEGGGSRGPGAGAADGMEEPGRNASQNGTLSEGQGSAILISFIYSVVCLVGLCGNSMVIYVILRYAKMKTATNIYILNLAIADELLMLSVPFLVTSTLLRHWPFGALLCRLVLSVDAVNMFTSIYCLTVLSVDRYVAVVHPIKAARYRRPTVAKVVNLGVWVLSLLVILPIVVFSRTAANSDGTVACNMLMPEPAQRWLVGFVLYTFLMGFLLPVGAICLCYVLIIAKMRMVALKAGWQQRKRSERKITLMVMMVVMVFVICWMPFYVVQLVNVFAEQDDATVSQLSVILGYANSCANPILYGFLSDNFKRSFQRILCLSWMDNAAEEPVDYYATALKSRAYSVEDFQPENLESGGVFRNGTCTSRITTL", "test": "SSTR binding affinity (Table 1)", "excerpt": "as §2"}, "[14]": {"target": "T1, SSTR5", "test": "SSTR binding affinity (Table 1)", "excerpt": "as §2"}, "[15]": {"target": "T3, SSTR3 (Homo sapiens, UniProt P32745)", "T3 sequence (P32745 whole entry)": "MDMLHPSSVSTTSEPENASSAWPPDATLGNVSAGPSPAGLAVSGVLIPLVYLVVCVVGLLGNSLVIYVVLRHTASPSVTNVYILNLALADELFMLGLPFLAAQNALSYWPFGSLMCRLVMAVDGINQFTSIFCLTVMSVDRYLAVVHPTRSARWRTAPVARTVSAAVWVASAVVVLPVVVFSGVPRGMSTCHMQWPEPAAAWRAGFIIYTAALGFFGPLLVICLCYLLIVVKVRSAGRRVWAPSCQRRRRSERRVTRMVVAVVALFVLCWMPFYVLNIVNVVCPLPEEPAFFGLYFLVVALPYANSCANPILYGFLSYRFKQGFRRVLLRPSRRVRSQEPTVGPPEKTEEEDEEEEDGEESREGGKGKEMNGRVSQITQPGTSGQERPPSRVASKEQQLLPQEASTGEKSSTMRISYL", "test": "SSTR binding affinity (Table 1)", "excerpt": "as §2"}, "[16]": {"tested_on": "NFPAs in MENX (homozygous mutant) rats", "test": "Efficacy against endogenous NFPAs in MENX rat model", "type": "in vivo", "conditions": "for number of Ki67-positive cells per 100.000 μm^2: end of treatment", "method": "MRI was performed every 14 days and the tumor volume was normalized against the volume at day 0. Male and female rat tumors are shown separately. Data presented are the mean±SEM. #, not significant; *, p-value <0.05; **, p-value <0.001.\n(A, B) Number of Ki67-positive cells per 100.000 μm2 in tumors of rats belonging to the 2 groups (ITF2984-treated and control) and both sexes. Shown is the mean±SEM. *, p-value <0.05; **, p-value <0.001. […]\nAt the end of the treatment, pituitary tissues were collected for ex vivo analyses. […] The difference in the number of Ki67-positive cells between placebo-and ITF2984-treated female rats is significant (p=0.031). […]"}, "[17]": {"tested_on": "IGF1 levels", "test": "IGF1 levels in dogs", "type": "in vivo, dog"}, "[18]": {"target": "T3, SSTR3", "test": "GIRK-based fluorescence membrane potential assay, HEK293-GIRK2-GFP-HA-hSST3", "text": "The concentrations used are indicated. […] Data points represent mean±S.E.M.\nas §3"}}, "data": [{"smiles": "COc1cc2cccc(OC)c2cc1C[C@H]1NC(=O)[C@H](Cc2ccc(O)cc2)NC(=O)[C@@H]2C[C@@H](OC(=O)NCCN)CN2C(=O)[C@H](Cc2ccccc2)NC(=O)[C@H](Cc2ccc(OCc3ccccc3)cc2)NC(=O)[C@H](CCCCN)NC1=O", "note": "[ITF2984, (3S,6R,9S,12S,15S,19R,20aS)-9-(4-aminobutyl)-15-benzyl-12-(4-(benzyloxy)benzyl)-6-((3,8-dimethoxynaphthalen-2-yl)methyl)-3-(4-hydroxybenzyl)-1,4,7,10,13,16-hexaoxoicosahydropyrrolo[1,2-a][1,4,7,10,13,16]hexaazacyclooctadecin-19-yl (2-aminoethyl)carbamate]", "values": [{"measurement": "internalization of SSTR5", "setting": "[1]", "result": "only a partial internalization"}, {"measurement": "Mean of internalized fluorescence, SSTR2", "setting": "[2]; 1 μM", "result": 37.3, "unit": "AU"}, {"measurement": "Mean of internalized fluorescence, SSTR2", "setting": "[2]; 10 μM", "result": 35.9, "unit": "AU"}, {"measurement": "IGF1 levels", "setting": "[3]", "result": "decreased IGF1 levels"}, {"measurement": "inhibition of GH release", "setting": "[4]", "result": "potently inhibited GH release"}, {"measurement": "EC50", "setting": "[5]", "result": "95.1 ± 15.2", "unit": "nM"}, {"measurement": "internalization of SSTR2", "setting": "[6]", "result": "only a partial internalization"}, {"measurement": "EC50", "setting": "[7]", "result": "312 ± 29.3", "unit": "nM"}, {"measurement": "replacement of agonists", "setting": "[8]", "result": "fully replace agonists"}, {"measurement": "Mean of internalized fluorescence, SSTR5", "setting": "[9]; 1 μM", "result": 34.6, "unit": "AU"}, {"measurement": "Mean of internalized fluorescence, SSTR5", "setting": "[9]; 10 μM", "result": 42.0, "unit": "AU"}, {"measurement": "phosphorylation of SSTR2 (pS341/pS343, pT353/T354, pT356/T359)", "setting": "[10]", "result": "selective phosphorylation of S341/S343"}, {"measurement": "IC50", "setting": "[11]", "result": "nanomolar range"}, {"measurement": "affinity compared to octreotide", "setting": "[11]; compared to octreotide", "result": "lower affinity"}, {"measurement": "phosphorylation of SSTR5 (pT333)", "setting": "[12]", "result": "partial phosphorylation"}, {"measurement": "affinity compared to octreotide", "setting": "[13]", "result": "higher affinity"}, {"measurement": "IC50", "setting": "[14]", "result": "nanomolar range"}, {"measurement": "affinity compared to octreotide", "setting": "[14]; compared to octreotide", "result": "higher affinity"}, {"measurement": "IC50", "setting": "[15]", "result": "nanomolar range"}, {"measurement": "affinity compared to octreotide", "setting": "[15]; compared to octreotide", "result": "higher affinity"}, {"measurement": "signs of discomfort", "setting": "[16]; end of the treatment", "result": "no signs of discomfort"}, {"measurement": "tumor volume (MRI)", "setting": "[16]; female rats, 56 days, 12.5 mg/kg every 14 days", "result": "only a slight increase in tumor volume"}, {"measurement": "number of Ki67-positive cells per 100.000 μm^2", "setting": "[16]; female rats", "result": 134}, {"measurement": "change in Ki67-positive cells versus placebo", "setting": "[16]; male rats", "result": "−33.5", "unit": "%"}, {"measurement": "number of Ki67-positive cells per 100.000 μm^2", "setting": "[16]; male rats", "result": 250}, {"measurement": "IGF1 levels", "setting": "[17]", "result": "decreased IGF1 levels"}, {"measurement": "EC50", "setting": "[18]", "result": "10.7 ± 1.7", "unit": "nM"}, {"measurement": "G-protein signaling potency at SSTR3 versus Octreotide or Pasireotide", "setting": "[18]; more potent than Octreotide or Pasireotide", "result": "about 5 times"}]}]}
